The subject of one assay is Botrtyis cinerea (Bc). Put plainly: Growth inhibition assay of fungal pathogens, Bc. The class given is cell-based. The settings on record: 48 h, growth inhibition at 48 hours vs 2% DMSO control. In a few lines:
(§1)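 Spores from sub-cultured plates were diluted in 17% V8 liquid medium and exposed to compound from DMSO stocks at final concentrations of 50, 10 and 2 ppm or 2, 0.4 and 0.08 ppm. OD600 and visual ratings at 48 h were compared with the 2% DMSO control to give percent growth inhibition.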

Another assay has as its system C. krusei. In words: Antifungal Activity Assay (broth microtiter MIC), C. krusei. It counts as cell-based, Candida krusei. Particulars: Pichia kudriavzevii, ATCC6258, 48 h. A digest of the protocol:
(§2)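 CLSI M27-A3 broth microdilution in RPMI 1640+MOPS, final inoculum 2.5×10^3 CFU/mL from overnight Sabouraud cultures grown at 35 °C. MIC read visually at 48 h against growth control.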

The next assay has as its system Rhizoctonia solani (Rs). Put plainly: Growth inhibition assay of fungal pathogens, Rs. It counts as cell-based. The settings on record: 48 h.
Another assay has as its system C. parapsilosis. Put plainly: Antifungal Activity Assay (broth microtiter MIC), C. parapsilosis. It counts as cell-based, Candida parapsilosis. The settings on record: Lodderomyces parapsilosis, ATCC22019, 48 h. A digest of the protocol:
as §2

In assay [1] the test system is Phytophthora capsici (Pc). In words: Growth inhibition assay of fungal pathogens, Pc. Particulars: 48 h. The class given is cell-based. In a few lines: as §1
Assay [2] deals with Fusarium moniliforme (Fm). In words: Growth inhibition assay of fungal pathogens, Fm. The class given is cell-based. Particulars: Fusarium verticillioides, 48 h, read-out: Concentration at 90% Inhibition Fm. In a few lines:
as §1

Another assay has as its system Septoria tritici (St). In words: Growth inhibition assay of fungal pathogens, St. The settings on record: Zymoseptoria tritici, 48 h, growth inhibition at 48 hours vs 2% DMSO control. The class given is cell-based. In a few lines:
as §1

For a further assay, the target named is fungal (fACC2) (UniProt Q00955). Particulars: read-out: fACC2 (in vitro ACC2 Inhibition Assay, IC50), ADP-Glo, 5 nM ACC2, 20 μM ATP, 20 μM acetyl-CoA. Background: ADP-Glo first removes unused ATP, then detects ADP through luciferase.
Chain of fungal (fACC2) (Q00955 whole entry): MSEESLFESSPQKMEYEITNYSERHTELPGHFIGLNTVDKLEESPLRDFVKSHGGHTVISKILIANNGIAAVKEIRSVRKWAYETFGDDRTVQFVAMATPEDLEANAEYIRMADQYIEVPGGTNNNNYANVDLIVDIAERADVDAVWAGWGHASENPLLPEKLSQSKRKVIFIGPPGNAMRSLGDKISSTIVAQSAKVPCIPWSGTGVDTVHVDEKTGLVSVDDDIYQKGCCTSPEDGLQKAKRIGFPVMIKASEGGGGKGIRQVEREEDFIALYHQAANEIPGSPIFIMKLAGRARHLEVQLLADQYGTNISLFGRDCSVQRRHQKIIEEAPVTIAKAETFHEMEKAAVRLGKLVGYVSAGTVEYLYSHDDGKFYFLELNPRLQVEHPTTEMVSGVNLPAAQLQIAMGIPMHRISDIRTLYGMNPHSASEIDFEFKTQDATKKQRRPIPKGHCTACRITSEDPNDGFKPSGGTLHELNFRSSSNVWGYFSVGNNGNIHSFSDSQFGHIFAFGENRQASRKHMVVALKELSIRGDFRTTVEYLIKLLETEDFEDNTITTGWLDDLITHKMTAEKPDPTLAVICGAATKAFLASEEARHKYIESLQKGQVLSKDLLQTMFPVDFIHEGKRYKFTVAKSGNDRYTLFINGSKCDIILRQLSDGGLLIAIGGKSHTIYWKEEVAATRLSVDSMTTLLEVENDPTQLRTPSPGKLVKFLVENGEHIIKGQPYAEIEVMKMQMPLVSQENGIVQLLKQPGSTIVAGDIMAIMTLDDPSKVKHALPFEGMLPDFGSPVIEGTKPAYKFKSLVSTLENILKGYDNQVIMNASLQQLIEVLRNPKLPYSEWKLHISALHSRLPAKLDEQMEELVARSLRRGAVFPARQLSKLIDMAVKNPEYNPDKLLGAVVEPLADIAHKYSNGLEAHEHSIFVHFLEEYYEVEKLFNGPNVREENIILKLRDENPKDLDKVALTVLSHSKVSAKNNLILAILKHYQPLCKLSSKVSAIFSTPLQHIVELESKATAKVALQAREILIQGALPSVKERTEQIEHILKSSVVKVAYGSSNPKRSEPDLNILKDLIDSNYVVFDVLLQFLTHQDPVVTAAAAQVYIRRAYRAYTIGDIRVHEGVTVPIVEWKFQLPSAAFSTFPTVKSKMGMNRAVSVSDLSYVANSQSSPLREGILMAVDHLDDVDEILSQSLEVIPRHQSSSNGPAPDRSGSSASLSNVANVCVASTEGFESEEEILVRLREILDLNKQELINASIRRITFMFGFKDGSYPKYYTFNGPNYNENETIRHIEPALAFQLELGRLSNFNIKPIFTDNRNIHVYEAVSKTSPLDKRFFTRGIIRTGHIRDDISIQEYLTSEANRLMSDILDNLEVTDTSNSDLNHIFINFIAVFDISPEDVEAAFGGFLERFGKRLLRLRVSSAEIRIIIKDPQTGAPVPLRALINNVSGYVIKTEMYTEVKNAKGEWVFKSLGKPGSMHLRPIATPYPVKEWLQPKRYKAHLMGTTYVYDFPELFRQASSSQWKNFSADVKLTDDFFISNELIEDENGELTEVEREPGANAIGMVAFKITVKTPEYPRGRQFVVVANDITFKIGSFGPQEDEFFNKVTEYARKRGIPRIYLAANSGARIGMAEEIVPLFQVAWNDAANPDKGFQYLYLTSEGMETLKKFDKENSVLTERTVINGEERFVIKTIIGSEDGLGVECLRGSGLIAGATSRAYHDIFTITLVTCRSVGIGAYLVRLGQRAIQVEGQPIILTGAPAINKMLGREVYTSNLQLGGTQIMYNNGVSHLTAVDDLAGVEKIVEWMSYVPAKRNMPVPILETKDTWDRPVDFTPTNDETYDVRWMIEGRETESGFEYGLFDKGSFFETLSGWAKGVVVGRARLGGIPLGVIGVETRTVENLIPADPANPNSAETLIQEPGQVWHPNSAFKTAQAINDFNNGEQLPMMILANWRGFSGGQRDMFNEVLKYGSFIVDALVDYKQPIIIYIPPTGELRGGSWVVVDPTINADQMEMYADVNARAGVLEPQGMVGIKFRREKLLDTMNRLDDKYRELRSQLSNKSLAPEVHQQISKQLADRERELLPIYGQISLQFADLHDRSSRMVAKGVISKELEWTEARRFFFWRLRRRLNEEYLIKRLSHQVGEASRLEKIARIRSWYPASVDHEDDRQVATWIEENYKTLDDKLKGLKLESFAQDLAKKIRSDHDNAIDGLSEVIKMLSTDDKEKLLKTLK
Assay [3] relates to Fusarium virguliforme (Fv). In words: Growth inhibition assay of fungal pathogens, Fv. The class given is cell-based. The settings on record: 48 h. In a few lines: as §1
The target of a further assay is human (hACC2) (Homo sapiens, UniProt O00763). Put plainly: In vitro ACC inhibition assay (ADP-Glo), hACC2. The class given is biochemical. The settings on record: 5 nM ACC2, 20 μM ATP, 20 μM acetyl-CoA. The procedure:
The detailed procedure is as follows. […] 10 μL ADP glo reagent was added. […] 20 μL kinase detection reagent was added.

The test system of another assay is Diplodia maydis (Dm). In words: Growth inhibition assay of fungal pathogens, Dm. The class given is cell-based. Particulars: Stenocarpella maydis, 48 h, growth inhibition at 48 hours vs 2% DMSO control. A digest of the protocol: as §1
Assay [4] concerns Collectotrichum graminicola (Cg). In words: Growth inhibition assay of fungal pathogens, Cg. Particulars: 48 h, growth inhibition at 48 hours vs 2% DMSO control. It counts as cell-based. In a few lines: as §1
For a further assay, the system named is C. albicans. Put plainly: Antifungal Activity Assay (broth microtiter MIC), C. albicans. The class given is cell-based, Candida albicans. Particulars: Candida albicans, ATCC90028, 48 h. In a few lines: as §2
Where [5] appears, read: Botrtyis cinerea, read-out: Concentration at 90% Inhibition Bc.
Setting [6] is: Table 3a, ATCC 6258, 3 replicates, MIC recorded at 48 h, read-out: MIC, C. krusei ATCC 6258.
Where [7] appears, read: Table 3b (additional results), ATCC 6258, 3 replicates, MIC recorded at 48 h, read-out: MIC, C. krusei ATCC 6258.
Setting [8] is: mycelial plugs, growth inhibition at 48 hours vs 2% DMSO control, read-out: Concentration at 90% Inhibition Rs.
[9] abbreviates: Table 3a, ATCC 22019, 3 replicates, MIC recorded at 48 h, read-out: MIC, C. parapsilosis ATCC 22019.
The mark [10] stands for this setting: Table 3b (additional results), ATCC 22019, 3 replicates, MIC recorded at 48 h, read-out: MIC, C. parapsilosis ATCC 22019.
[11] abbreviates: growth inhibition at 48 hours vs 2% DMSO control, read-out: Concentration at 90% Inhibition Pc.
[12] abbreviates: Fusarium moniliforme, growth inhibition at 48 hours vs 2% DMSO control.
[13] abbreviates: Septoria tritici, read-out: Concentration at 90% Inhibition St.
The mark [14] stands for this setting: growth inhibition at 48 hours vs 2% DMSO control, read-out: Concentration at 90% Inhibition Fv.
Setting [15] is: Diplodia maydis, read-out: Concentration at 90% Inhibition Dm.
[16] abbreviates: Collectotrichum graminicola, read-out: Concentration at 90% Inhibition Cg.
The mark [17] stands for this setting: Table 3a, ATCC 90028, 3 replicates, MIC recorded at 48 h, read-out: MIC, C. albicans ATCC 90028.
The mark [18] stands for this setting: Table 3b (additional results), ATCC 90028, 3 replicates, MIC recorded at 48 h, read-out: MIC, C. albicans ATCC 90028.

Values after ≈ are worked out from the molar mass of the structure shown. Like-named read-outs stand apart in the source and are kept apart here. Where only a bound is given, the exact number is not on record here.

As usually defined, the MIC is the lowest concentration found to suppress growth. The IC50 is the concentration needed to halve the response being measured.

Chain of human (hACC2) (O00763 whole entry): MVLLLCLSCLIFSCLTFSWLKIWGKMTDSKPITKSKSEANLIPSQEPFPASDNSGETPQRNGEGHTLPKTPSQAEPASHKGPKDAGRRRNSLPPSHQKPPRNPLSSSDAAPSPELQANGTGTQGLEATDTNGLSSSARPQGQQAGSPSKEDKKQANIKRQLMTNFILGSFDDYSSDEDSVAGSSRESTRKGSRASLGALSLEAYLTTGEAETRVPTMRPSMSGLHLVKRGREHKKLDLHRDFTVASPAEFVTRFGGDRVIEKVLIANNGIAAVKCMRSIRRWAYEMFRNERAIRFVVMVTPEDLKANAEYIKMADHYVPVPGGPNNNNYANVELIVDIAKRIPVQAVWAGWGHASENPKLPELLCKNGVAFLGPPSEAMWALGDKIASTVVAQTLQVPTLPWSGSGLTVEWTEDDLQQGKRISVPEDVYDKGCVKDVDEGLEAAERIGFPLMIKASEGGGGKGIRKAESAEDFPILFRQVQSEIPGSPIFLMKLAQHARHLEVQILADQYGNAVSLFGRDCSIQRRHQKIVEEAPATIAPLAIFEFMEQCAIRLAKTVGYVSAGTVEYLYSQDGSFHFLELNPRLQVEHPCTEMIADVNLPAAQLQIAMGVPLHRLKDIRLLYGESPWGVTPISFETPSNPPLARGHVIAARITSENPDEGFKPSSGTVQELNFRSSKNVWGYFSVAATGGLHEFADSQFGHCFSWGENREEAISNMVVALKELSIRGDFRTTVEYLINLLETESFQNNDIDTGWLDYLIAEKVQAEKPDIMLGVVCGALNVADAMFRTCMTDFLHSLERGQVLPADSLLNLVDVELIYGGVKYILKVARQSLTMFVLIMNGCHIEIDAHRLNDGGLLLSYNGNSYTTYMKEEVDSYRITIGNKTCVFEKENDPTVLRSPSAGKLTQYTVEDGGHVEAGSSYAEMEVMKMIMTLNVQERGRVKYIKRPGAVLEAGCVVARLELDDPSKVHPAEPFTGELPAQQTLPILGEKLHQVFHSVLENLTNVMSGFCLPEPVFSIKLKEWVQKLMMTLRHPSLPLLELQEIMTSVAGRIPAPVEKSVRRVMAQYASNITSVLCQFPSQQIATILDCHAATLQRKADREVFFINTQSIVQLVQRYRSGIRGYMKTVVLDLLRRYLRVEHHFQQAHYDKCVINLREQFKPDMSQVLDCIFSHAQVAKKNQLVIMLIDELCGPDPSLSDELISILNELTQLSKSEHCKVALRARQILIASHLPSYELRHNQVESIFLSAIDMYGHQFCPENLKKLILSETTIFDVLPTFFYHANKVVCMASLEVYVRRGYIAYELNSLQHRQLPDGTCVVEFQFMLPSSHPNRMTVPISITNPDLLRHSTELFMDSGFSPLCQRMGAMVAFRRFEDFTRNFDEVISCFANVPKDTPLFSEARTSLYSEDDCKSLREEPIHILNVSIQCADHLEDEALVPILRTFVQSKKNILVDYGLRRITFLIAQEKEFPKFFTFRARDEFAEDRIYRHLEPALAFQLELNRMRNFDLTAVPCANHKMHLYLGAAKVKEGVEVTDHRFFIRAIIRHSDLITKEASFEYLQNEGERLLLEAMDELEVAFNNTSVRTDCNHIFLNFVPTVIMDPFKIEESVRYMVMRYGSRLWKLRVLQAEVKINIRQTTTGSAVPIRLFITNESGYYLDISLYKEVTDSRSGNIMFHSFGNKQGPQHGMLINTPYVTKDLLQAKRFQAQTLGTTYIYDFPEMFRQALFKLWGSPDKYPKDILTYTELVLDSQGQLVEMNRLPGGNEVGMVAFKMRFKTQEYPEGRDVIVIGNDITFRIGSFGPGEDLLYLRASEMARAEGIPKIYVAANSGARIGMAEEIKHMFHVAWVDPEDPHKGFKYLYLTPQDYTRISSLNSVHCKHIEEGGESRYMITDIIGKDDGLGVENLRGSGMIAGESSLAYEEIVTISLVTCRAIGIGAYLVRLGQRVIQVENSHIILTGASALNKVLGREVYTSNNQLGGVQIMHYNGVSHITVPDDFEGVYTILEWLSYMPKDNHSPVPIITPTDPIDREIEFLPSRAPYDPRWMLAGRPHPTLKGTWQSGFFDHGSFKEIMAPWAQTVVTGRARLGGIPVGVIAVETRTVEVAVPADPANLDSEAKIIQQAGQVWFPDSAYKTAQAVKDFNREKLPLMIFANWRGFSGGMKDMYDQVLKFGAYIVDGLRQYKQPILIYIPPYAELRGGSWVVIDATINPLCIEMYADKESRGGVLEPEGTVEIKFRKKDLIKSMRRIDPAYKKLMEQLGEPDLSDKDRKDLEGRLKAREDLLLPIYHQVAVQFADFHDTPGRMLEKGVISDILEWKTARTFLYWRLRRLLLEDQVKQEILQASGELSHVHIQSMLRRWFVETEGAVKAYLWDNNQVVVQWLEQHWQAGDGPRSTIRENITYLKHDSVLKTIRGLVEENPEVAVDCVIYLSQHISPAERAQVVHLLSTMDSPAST

On to `COc1ccc(F)cc1[C@H](Cn1c(=O)n(C(C)(C)C(=O)NC(C)C)c(=O)c2c(C)c(-n3nccn3)sc21)OCC#N` [Compound I-144], for which the IC90 is 0.4 mg/L (≈ 0.685 µM) in the assay on Botrtyis cinerea (Bc) (read-out: Concentration at 90% Inhibition Bc, Botrtyis cinerea); 0.08 mg/L (≈ 0.137 µM) in the assay on Rhizoctonia solani (Rs) (read-out: Concentration at 90% Inhibition Rs, Rhizoctonia solani, mycelial plugs, growth inhibition at 48 hours vs 2% DMSO control); > 50 mg/L in [1] (read-out: Concentration at 90% Inhibition Pc, Phytophthora capsici, growth inhibition at 48 hours vs 2% DMSO control); 2 mg/L (≈ 3.43 µM) in assay [2]; > 50 mg/L with Septoria tritici (St) (read-out: Concentration at 90% Inhibition St, Septoria tritici); 0.4 mg/L (≈ 0.685 µM) in assay [3] (read-out: Concentration at 90% Inhibition Fv, Fusarium virguliforme, growth inhibition at 48 hours vs 2% DMSO control). For the same compound, the IC90 in the assay with Diplodia maydis (Dm) (read-out: Concentration at 90% Inhibition Dm, Diplodia maydis) was 0.4 mg/L (≈ 0.685 µM); in [4] (read-out: Concentration at 90% Inhibition Cg, Collectotrichum graminicola) it was 0.4 mg/L (≈ 0.685 µM). In addition, the MIC lay within 0.25 to 1 mg/L (≈ 0.428 to 1.71 µM) with C. krusei (read-out: MIC, C. krusei ATCC 6258, Table 3a, 3 replicates, MIC recorded at 48 h); 0.25 to 1 mg/L (≈ 0.428 to 1.71 µM) in the assay on C. krusei (read-out: MIC, C. krusei ATCC 6258, Table 3b (additional results), 3 replicates, MIC recorded at 48 h); 0.25 to 1 mg/L (≈ 0.428 to 1.71 µM) with C. parapsilosis (read-out: MIC, C. parapsilosis ATCC 22019, Table 3a, 3 replicates, MIC recorded at 48 h); 1.01 to 2 mg/L (≈ 1.73 to 3.43 µM) in the assay with C. parapsilosis (read-out: MIC, C. parapsilosis ATCC 22019, Table 3b (additional results), 3 replicates, MIC recorded at 48 h); 0.25 to 1 mg/L (≈ 0.428 to 1.71 µM) with C. albicans (read-out: MIC, C. albicans ATCC 90028, Table 3a, 3 replicates, MIC recorded at 48 h); 1.01 to 2 mg/L (≈ 1.73 to 3.43 µM) in the assay with C. albicans (read-out: MIC, C. albicans ATCC 90028, Table 3b (additional results), 3 replicates, MIC recorded at 48 h). Also, the IC50 was 1 to 5 nM on fungal (fACC2) (Table 2a); 1 to 5 nM on fungal (fACC2) (Table 2b, additional results); 5 to 10 nM on human (hACC2) (Table 2b, additional results).

For the compound `COc1ccc(F)cc1[C@H](Cn1c(=O)n(C(C)(C)C(=O)NC(C)C)c(=O)c2c(C)c(-n3nccn3)sc21)OC[C@@H](C)C#N` [Compound I-150], the IC90 with Botrtyis cinerea (Bc) (setting [5]) was 0.4 mg/L (≈ 0.654 µM); in the assay on Rhizoctonia solani (Rs) (setting [8]), 0.08 mg/L (≈ 0.131 µM); in assay [1] (setting [11]), > 50 mg/L; in assay [2] (setting [12]) it was 0.08 mg/L (≈ 0.131 µM); in the assay on Septoria tritici (St) (setting [13]) it was > 50 mg/L; in [3] (setting [14]), 0.4 mg/L (≈ 0.654 µM). Moreover, the IC90 (in the assay on Diplodia maydis (Dm) (setting [15]); in [4] (setting [16])) was 0.08 mg/L (≈ 0.131 µM) each time. For the same compound, the MIC with C. krusei (setting [6]), in the assay on C. krusei (setting [7]), in the assay with C. parapsilosis (setting [9]), in the assay with C. parapsilosis (setting [10]), in the assay on C. albicans (setting [17]) and in the assay with C. albicans (setting [18]) was 0.25 to 1 mg/L (≈ 0.409 to 1.63 µM) in each case. The IC50 at fungal (fACC2) (Table 2a) fell in the range of 0.4 to 1 nM; on fungal (fACC2) (Table 2b, additional results), 0.3 to 1 nM; against human (hACC2) (Table 2a), 1 to 5 nM; at human (hACC2) (Table 2b, additional results), 1 to 5 nM.

For the compound `COc1ccc(F)cc1[C@H](Cn1c(=O)n(C(C)(C)C(=O)NC(C)C)c(=O)c2c(C)c(-n3nccn3)sc21)OC[C@H](C)C#N` [Compound I-151], the IC90 was 0.4 mg/L (≈ 0.654 µM) in the assay with Botrtyis cinerea (Bc) (setting [5]); 0.08 mg/L (≈ 0.131 µM) in the assay with Rhizoctonia solani (Rs) (setting [8]); > 50 mg/L in assay [1] (setting [11]); 0.08 mg/L (≈ 0.131 µM) in assay [2] (setting [12]); > 50 mg/L in the assay on Septoria tritici (St) (setting [13]); 0.4 mg/L (≈ 0.654 µM) in [3] (setting [14]). Besides, the IC90 (with Diplodia maydis (Dm) (setting [15]); in [4] (setting [16])) was 0.08 mg/L (≈ 0.131 µM) in each case. Besides, the MIC with C. krusei (setting [6]), in the assay with C. krusei (setting [7]), in the assay with C. parapsilosis (setting [9]), with C. parapsilosis (setting [10]), with C. albicans (setting [17]) and in the assay on C. albicans (setting [18]) was 0.25 to 1 mg/L (≈ 0.409 to 1.63 µM) throughout. Besides, the IC50 at fungal (fACC2) (Table 2a) was 0.4 to 1 nM; on fungal (fACC2) (Table 2b, additional results), 0.3 to 1 nM; against human (hACC2) (Table 2a), 5 to 10 nM; on human (hACC2) (Table 2b, additional results), 1 to 5 nM.

Values taken from US10800791B2, “Triazole ACC inhibitors and uses thereof” (Gilead Apollo, LLC, priority 2015, dated 2020).
